Assay results reported in ChEMBL document CHEMBL4000252, “Discovery of N-(2-aminoethyl)-N-benzyloxyphenyl benzamides: New potent Trypanosoma brucei inhibitors” (Bioorg Med Chem, 2017).
Blank lines part the entries; values can stand above or below the molecule they belong to. Activity calls are given as the source filed them. The rule behind the calls is not given here.

Tests used:
[1] = tested on: Trypanosoma brucei brucei; experiment: Antiparasitic activity against Trypanosoma brucei brucei BF427 assessed as growth inhibition after 48 hrs by Alamar blue assay; type: functional; details: BF427, 48 h
[2] = Cytotoxicity against human CRL8155 cells assessed as growth inhibition after 48 hrs by Alamar blue assay; type: cell-based; details: crl8155, 48 h
HepG2 = experiment: Cytotoxicity against human HepG2 cells assessed as growth inhibition after 48 hrs by Alamar blue assay; type: cell-based; details: hepg2, 48 h
Cytochrome P450 3A4 = Cytochrome P450 3A4 (Homo sapiens, UniProt P08684); experiment: Inhibition of human CYP3A4; type: ADME
Liver = experiment: Half life in human liver microsomes at 1.5 uM by LC-MS analysis; type: ADME, microsome
[3] = Ratio of drug level in brain to plasma in mouse at 5 mg/kg, ip after 1 hr by LC-MS analysis; type: ADME, organism-based
[4] = Cmax in mouse at 50 mg/kg, po by LC-MS analysis; type: ADME, organism-based; set-up: dose 50 mg/kg, route oral; details: in vivo
[5] = AUC (0 to 8 hrs) in mouse at 50 mg/kg, po by LC-MS analysis; type: ADME, organism-based; set-up: dose 50 mg/kg, time < 8 hr, route oral; details: in vivo
[6] = tested on: Trypanosoma brucei rhodesiense; experiment: Antiparasitic activity against Trypanosoma brucei rhodesiense STIB900 infected in Swiss-Webster mouse assessed as cure rate at 50 mg/kg, bid administered via oral gavage from day 2 to 5 post infection measured after 60 days by microscopic method relative to control; type: functional
[7] = tested on: Trypanosoma brucei brucei; experiment: Antiparasitic activity against Trypanosoma brucei brucei TREU667 infected in mouse assessed as decrease in parasitemia at 50 mg/kg, bid administered via oral gavage on day 21 to 34 post infection measured on day 34 by microscopic method; type: functional, organism-based
[8] = tested on: Trypanosoma brucei brucei; experiment: Antiparasitic activity against Trypanosoma brucei brucei TREU667 infected in mouse assessed as decrease in parasitemia at 50 mg/kg, bid administered via oral gavage on day 21 to 34 post infection measured on day 41 to 42 by microscopic method; type: functional, organism-based
[9] = tested on: Trypanosoma brucei brucei; experiment: Antiparasitic activity against Trypanosoma brucei brucei BF427 assessed as growth inhibition at 32 times EC50 pretreated for 24 hrs followed by compound washout measured after 10 days by light microscopic method; type: functional
[10] = tested on: Trypanosoma brucei brucei; experiment: Antiparasitic activity against Trypanosoma brucei brucei BF427 assessed as growth inhibition at 64 times EC50 pretreated for 48 hrs followed by compound washout measured after 10 days by light microscopic method; type: functional
[11] = tested on: Trypanosoma brucei brucei; experiment: Antiparasitic activity against Trypanosoma brucei brucei BF427 assessed as growth inhibition at 64 times EC50 pretreated for 72 hrs followed by compound washout measured after 10 days by light microscopic method; type: functional
[12] = tested on: Trypanosoma brucei brucei; experiment: Antiparasitic activity against Trypanosoma brucei brucei BF427 assessed as growth inhibition at 16 times EC50 pretreated for 96 hrs followed by compound washout measured after 10 days by light microscopic method; type: functional
L6 = experiment: Cytotoxicity against rat L6 cells assessed as growth inhibition after 48 hrs by Alamar blue assay; type: cell-based; details: l6, 48 h
[13] = tested on: Trypanosoma brucei brucei; experiment: Antiparasitic activity against Trypanosoma brucei brucei BF427 assessed as growth inhibition at 16 times EC50 pretreated for 24 hrs followed by compound washout measured after 10 days by light microscopic method; type: functional
[14] = tested on: Trypanosoma brucei brucei; experiment: Antiparasitic activity against Trypanosoma brucei brucei BF427 assessed as growth inhibition at 32 times EC50 pretreated for 48 hrs followed by compound washout measured after 10 days by light microscopic method; type: functional
[15] = tested on: Trypanosoma brucei brucei; experiment: Antiparasitic activity against Trypanosoma brucei brucei BF427 assessed as growth inhibition at 16 times EC50 pretreated for 72 hrs followed by compound washout measured after 10 days by light microscopic method; type: functional
[16] = tested on: Trypanosoma brucei brucei; experiment: Antiparasitic activity against Trypanosoma brucei brucei BF427 assessed as growth inhibition at 32 times EC50 pretreated for 96 hrs followed by compound washout measured after 10 days by light microscopic method; type: functional
[17] = tested on: Trypanosoma brucei brucei; experiment: Antiparasitic activity against Trypanosoma brucei brucei BF427 assessed as growth inhibition at 4 times EC50 pretreated for 24 hrs followed by compound washout measured after 10 days by light microscopic method; type: functional
[18] = tested on: Trypanosoma brucei brucei; experiment: Antiparasitic activity against Trypanosoma brucei brucei BF427 assessed as growth inhibition at 4 times EC50 pretreated for 48 hrs followed by compound washout measured after 10 days by light microscopic method; type: functional
[19] = tested on: Trypanosoma brucei brucei; experiment: Antiparasitic activity against Trypanosoma brucei brucei BF427 assessed as growth inhibition at EC50 pretreated for 72 hrs followed by compound washout measured after 10 days by light microscopic method; type: functional
[20] = tested on: Trypanosoma brucei brucei; experiment: Antiparasitic activity against Trypanosoma brucei brucei BF427 assessed as growth inhibition at EC50 pretreated for 96 hrs followed by compound washout measured after 10 days by light microscopic method; type: functional
[21] = tested on: Trypanosoma brucei brucei; experiment: Antiparasitic activity against Trypanosoma brucei brucei TREU667 infected in mouse assessed as decrease in parasitemia at 10 mg/kg, ip administered as single dose on day 21 post infection measured on day 34 by microscopic method; type: functional, organism-based
[22] = tested on: Trypanosoma brucei brucei; experiment: Antiparasitic activity against Trypanosoma brucei brucei TREU667 infected in mouse assessed as decrease in parasitemia at 10 mg/kg, ip administered as single dose on day 21 post infection measured on day 35 by microscopic method; type: functional, organism-based
[23] = tested on: Trypanosoma brucei brucei; experiment: Antiparasitic activity against Trypanosoma brucei brucei TREU667 infected in mouse assessed as decrease in parasitemia at 10 mg/kg, ip administered as single dose on day 21 post infection measured on day 36 by microscopic method; type: functional, organism-based
[24] = tested on: Trypanosoma brucei brucei; experiment: Antiparasitic activity against Trypanosoma brucei brucei TREU667 infected in mouse assessed as decrease in parasitemia at 10 mg/kg, ip administered as single dose on day 21 post infection measured on day 37 by microscopic method; type: functional, organism-based
[25] = tested on: Trypanosoma brucei brucei; experiment: Antiparasitic activity against Trypanosoma brucei brucei TREU667 infected in mouse assessed as decrease in parasitemia at 10 mg/kg, ip administered as single dose on day 21 post infection measured on day 38 by microscopic method; type: functional, organism-based
[26] = tested on: Trypanosoma brucei brucei; experiment: Antiparasitic activity against Trypanosoma brucei brucei TREU667 infected in mouse assessed as decrease in parasitemia at 10 mg/kg, ip administered as single dose on day 21 post infection measured on day 39 by microscopic method; type: functional, organism-based
[27] = tested on: Trypanosoma brucei brucei; experiment: Antiparasitic activity against Trypanosoma brucei brucei TREU667 infected in mouse assessed as decrease in parasitemia at 10 mg/kg, ip administered as single dose on day 21 post infection measured on day 40 by microscopic method; type: functional, organism-based
[28] = tested on: Trypanosoma brucei brucei; experiment: Antiparasitic activity against Trypanosoma brucei brucei TREU667 infected in mouse assessed as decrease in parasitemia at 10 mg/kg, ip administered as single dose on day 21 post infection measured on day 41 to 42 by microscopic method; type: functional, organism-based
[29] = tested on: Trypanosoma brucei brucei; experiment: Antiparasitic activity against Trypanosoma brucei brucei TREU667 infected in mouse assessed as decrease in parasitemia at 10 mg/kg, ip administered as single dose on day 21 post infection measured on day 43 to 45 by microscopic method; type: functional, organism-based
[30] = tested on: Trypanosoma brucei brucei; experiment: Antiparasitic activity against Trypanosoma brucei brucei TREU667 infected in mouse assessed as decrease in parasitemia at 10 mg/kg, ip administered as single dose on day 21 post infection measured on day 50 to 51 by microscopic method; type: functional, organism-based
[31] = tested on: Trypanosoma brucei brucei; experiment: Antiparasitic activity against Trypanosoma brucei brucei TREU667 infected in mouse assessed as decrease in parasite levels in peripheries at 10 mg/kg, ip administered as single dose on day 21 post infection by microscopic method; type: functional, organism-based
[32] = tested on: Trypanosoma brucei brucei; experiment: Antiparasitic activity against Trypanosoma brucei brucei TREU667 infected in mouse assessed as decrease in parasite levels in brain at 10 mg/kg, ip administered as single dose on day 21 post infection by microscopic method; type: functional, organism-based

Chain of Cytochrome P450 3A4 (P08684 whole entry): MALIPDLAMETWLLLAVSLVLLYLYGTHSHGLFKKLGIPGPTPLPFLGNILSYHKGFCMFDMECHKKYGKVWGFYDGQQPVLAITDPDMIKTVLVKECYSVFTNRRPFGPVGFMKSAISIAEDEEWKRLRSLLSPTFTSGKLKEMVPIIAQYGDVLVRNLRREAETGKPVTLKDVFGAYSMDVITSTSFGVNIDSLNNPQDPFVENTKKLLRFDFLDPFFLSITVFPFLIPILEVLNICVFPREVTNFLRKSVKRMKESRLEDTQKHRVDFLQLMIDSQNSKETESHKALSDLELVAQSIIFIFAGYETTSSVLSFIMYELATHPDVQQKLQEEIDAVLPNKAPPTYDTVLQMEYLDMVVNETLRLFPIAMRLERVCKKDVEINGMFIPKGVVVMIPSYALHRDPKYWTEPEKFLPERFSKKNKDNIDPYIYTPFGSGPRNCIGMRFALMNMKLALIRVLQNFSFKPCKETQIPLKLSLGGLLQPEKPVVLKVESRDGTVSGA

Compound: CC(C)c1ccc(COc2ccc(N(CCN)C(=O)c3ccc(Cl)cc3Cl)cc2)cc1.Cl
- CC50 [2]: 3.1 µM
- CC50 (HepG2): 3.19 µM
- IC50 (Cytochrome P450 3A4): 0.015 µM
- t1/2 (Liver): > 1 h
- BPR [3]: 0.32
- Cmax [4]: 1490 nM
- AUC(0-t) at 8 h [5]: 21 µM·h
- Activity [6]: 67 - 80%
- growth inhibition (GI) [13]: Active
- growth inhibition (GI) [14]: Active
- growth inhibition (GI) [15]: Active
- growth inhibition (GI) [16]: Active

Compound: N=C(N)c1ccc(OCCCCCOc2ccc(C(=N)N)cc2)cc1
- growth inhibition (GI) [17]: Active
- growth inhibition (GI) [18]: Active
- growth inhibition (GI) [19]: Active
- growth inhibition (GI) [20]: Active

Compound: N=C(N)c1ccc(/N=N/Nc2ccc(C(=N)N)cc2)cc1
- Activity [21]: Active
- Activity [22]: Active
- Activity [23]: Active
- Activity [24]: Active
- Activity [25]: Active
- Activity [26]: Active
- Activity [27]: Active
- Activity [28]: Active
- Activity [29]: Active
- Activity [30]: inactive
- Activity [31]: Active
- Activity [32]: inactive

Second part, led by results:

- EC50 [1]: 0.02 µM
- IC50 (Cytochrome P450 3A4): 0.003 µM
- t1/2 (Liver): > 1 h
- BPR [3]: 0.18
- Cmax [4]: 5900 nM
- AUC(0-t) at 8 h [5]: 33.9 µM·h
Compound: Cc1cc(C)cc(COc2ccc(N(CCN)C(=O)c3ccc(Cl)cc3Cl)cc2)c1.Cl
- CC50 [2]: 2.45 µM
- CC50 (HepG2): 4.1 µM
- Activity [6]: 33%
- Activity [7]: Active
- Activity [8]: inactive

- EC50 [1]: 0.015 µM
- t1/2 (Liver): 0.65 h
- BPR [3]: 0.06
- Cmax [4]: 2070 nM
- AUC(0-t) at 8 h [5]: 10.9 µM·h
Compound: Cc1cc(C)cc(COc2ccc(N(CCN)C(=O)c3cccnc3Cl)cc2)c1.Cl.Cl
- CC50 [2]: 5.12 µM
- CC50 (HepG2): 8.38 µM
- Activity [6]: 67 - 80%
- growth inhibition (GI) [9]: Active
- growth inhibition (GI) [10]: Active
- growth inhibition (GI) [11]: Active
- growth inhibition (GI) [12]: Active

- EC50 [1]: 3.9 µM
Compound: NCCN(C(=O)c1ccccc1F)c1ccc(Cl)cc1
- CC50 (L6): 104 µM
